The values that follow come from PubChem BioAssay AID330 (DTP/NCI, 2004).

This assay concerns P388 leukemia ip, CD2F1 mice, survival T/C. The assay can be described thus: NCI In Vivo Anticancer Drug Screen. Data for tumor model P388 Leukemia (intraperitoneal) in CD2F1 (CDF1) mice. To be noted: endpoint: median survival time, higher = longer survival. The method, boiled down:
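Mice carrying the transplanted tumor received test compound or vehicle. Survival was recorded in each group, and the value is the treated-group measurement divided by that of the vehicle-treated control group.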

Where [1] appears, read: dose: 1.56 mg/kg/injection, schedule: Q01DX005 (ip), vehicle: Klucel (hydroxypropylcellulose) (HPC).
Setting [2] is: dose: 3.12 mg/kg/injection, schedule: Q01DX005 (ip), vehicle: Klucel (hydroxypropylcellulose) (HPC).
[3] abbreviates: dose: 6.25 mg/kg/injection, schedule: Q01DX005 (ip), vehicle: Klucel (hydroxypropylcellulose) (HPC).
Where [4] appears, read: dose: 60.0 mg/kg/injection, schedule: Q01DX005 (ip), vehicle: saline with Tween-80.
Where [5] appears, read: dose: 120.0 mg/kg/injection, schedule: Q01DX005 (ip), vehicle: saline with Tween-80.
[6] abbreviates: dose: 240.0 mg/kg/injection, schedule: Q01DX005 (ip), vehicle: saline with Tween-80.
Setting [7] is: dose: 25.0 mg/kg/injection, schedule: Q01DX009 (ip), vehicle: Klucel (hydroxypropylcellulose) (HPC).
Where [8] appears, read: dose: 50.0 mg/kg/injection, schedule: Q01DX009 (ip), vehicle: Klucel (hydroxypropylcellulose) (HPC).
Where [9] appears, read: dose: 50.0 mg/kg/injection, schedule: Q01DX005 (ip), vehicle: saline with Tween-80.
Where [10] appears, read: dose: 100.0 mg/kg/injection, schedule: Q01DX005 (ip), vehicle: saline with Tween-80.
[11] abbreviates: dose: 200.0 mg/kg/injection, schedule: Q01DX005 (ip), vehicle: saline with Tween-80.
[12] abbreviates: dose: 100.0 mg/kg/injection, schedule: Q04DX003 (ip), vehicle: saline.
The mark [13] stands for this setting: dose: 200.0 mg/kg/injection, schedule: Q04DX003 (ip), vehicle: saline.
[14] abbreviates: dose: 400.0 mg/kg/injection, schedule: Q04DX003 (ip), vehicle: saline.
The mark [15] stands for this setting: dose: 12.5 mg/kg/injection, schedule: Q01DX005 (ip), vehicle: Klucel (hydroxypropylcellulose) (HPC).
[16] abbreviates: dose: 50.0 mg/kg/injection, schedule: Q01DX005 (ip), vehicle: Klucel (hydroxypropylcellulose) (HPC).
The mark [17] stands for this setting: dose: 100.0 mg/kg/injection, schedule: Q01DX005 (ip), vehicle: Klucel (hydroxypropylcellulose) (HPC).
Where [18] appears, read: dose: 200.0 mg/kg/injection, schedule: Q01DX005 (ip), vehicle: Klucel (hydroxypropylcellulose) (HPC).
Setting [19] is: dose: 100.0 mg/kg/injection, schedule: Q01DX009 (ip), vehicle: Klucel (hydroxypropylcellulose) (HPC).
Where [20] appears, read: dose: 400.0 mg/kg/injection, schedule: Q01DX009 (ip), vehicle: Klucel (hydroxypropylcellulose) (HPC).
Where [21] appears, read: dose: 200.0 mg/kg/injection, schedule: Q01DX009 (ip), vehicle: Klucel (hydroxypropylcellulose) (HPC).
Setting [22] is: dose: 50.0 mg/kg/injection, schedule: Q01DX009 (ip), vehicle: saline with Tween-80.
[23] abbreviates: dose: 100.0 mg/kg/injection, schedule: Q01DX009 (ip), vehicle: saline with Tween-80.
[24] abbreviates: dose: 200.0 mg/kg/injection, schedule: Q01DX009 (ip), vehicle: saline with Tween-80.
[25] abbreviates: dose: 400.0 mg/kg/injection, schedule: Q01DX009 (ip), vehicle: saline with Tween-80.

Several values for one entry are separate records, joined by “and”; a condition that tells them apart may be missing. Equal entries are not always repeated. Inconclusive results and toxic doses are left out.

Consider `COc1cccc(/C=C/C(=O)C(CN(C)C)CN(C)C)c1`, for which the T/C was 100 % of control (dose: 6.25 mg/kg/injection, schedule: Q01DX005 (ip), vehicle: saline) and 106 % of control (dose: 12.5 mg/kg/injection, schedule: Q01DX005 (ip), vehicle: saline).
Turning to `OC(c1ccccc1I1OC(C(F)(F)F)(C(F)(F)F)c2ccccc21)(C(F)(F)F)C(F)(F)F` (tested in a mixture with another compound), the T/C under setting [1] was 99 % of control, the T/C under setting [2] was 93 % of control and the T/C under setting [3] was 98 % of control.
Take `CCOC(=O)NC(C)(C)CN(C(=O)OCC)C(C)C`: the T/C was 95 % of control (dose: 100.0 mg/kg/injection, schedule: Q04DX003 (ip), vehicle: other); 100 % of control (dose: 200.0 mg/kg/injection, schedule: Q04DX003 (ip), vehicle: other); 95 % of control (dose: 400.0 mg/kg/injection, schedule: Q04DX003 (ip), vehicle: other).
Consider `Cc1cc(C)nc(CC(O)c2ccc(C=O)cc2)c1` (stereo not drawn), for which the T/C under setting [4] was 100 % of control, the T/C under setting [5] was 94 % of control and the T/C under setting [6] was 94 % of control.
With `O=C1ON=C(c2ccccc2)/C1=C\C=C\c1ccccc1`, the T/C by setting is: under setting [4], 95 % of control; under setting [5], 98 % of control; under setting [6], 103 % of control.
For the molecule `COc1cc2c(cc1OC)C1CC(=O)C(CC(C)C)CN1CC2` (stereo not drawn), the T/C is, setting by setting: (dose: 12.5 mg/kg/injection, schedule: Q01DX009 (ip), vehicle: Klucel (hydroxypropylcellulose) (HPC)) 100 % of control; under setting [7], 100 % of control; under setting [8], 103 % of control.
Consider `CSCCC(NC(=O)CN(C)C(=O)OCc1ccccc1)C(=O)O` (stereo not drawn), for which the T/C under setting [9] is 100 % of control and the T/C under setting [10] was 100 % of control.
With `Cc1c(Cl)cccc1Nc1ncccc1C(=O)OCC(O)CO` (stereo not drawn), the T/C was 96 % of control under setting [9], 98 % of control under setting [10] and 95 % of control under setting [11].
In the case of `O=[N+]([O-])c1c(Nc2ccccc2)nc(-c2ccccc2)nc1Nc1ccccc1`, the T/C reads like this: under setting [12], 90 % of control; under setting [13], 92 % of control; under setting [14], 90 % of control.
Consider `CC1=C(CCCCCCCCCCCCCCC(C)O)C(=O)OC1=O` (stereo not drawn), for which the T/C reads like this: under setting [1], 108 % of control; under setting [2], 108 % of control; under setting [3], 99 % of control; under setting [15], 99 % of control; under setting [16], 89 % of control; under setting [17], 92 % of control. In addition, the T/C under setting [18] was 101 % of control and the T/C (dose: 400.0 mg/kg/injection, schedule: Q01DX005 (ip), vehicle: Klucel (hydroxypropylcellulose) (HPC)) is 87 % of control.
As to `CNC(=O)OCc1c(COC(=O)NC)c(C)n(-c2ccc(Br)cc2)c1C`, the T/C reads like this: (dose: 12.5 mg/kg/injection, schedule: Q01DX009 (ip), vehicle: saline) 152 % of control and 154 % of control; (dose: 25.0 mg/kg/injection, schedule: Q01DX009 (ip), vehicle: saline) 157 % of control; (dose: 50.0 mg/kg/injection, schedule: Q01DX009 (ip), vehicle: saline) 89 % of control.
As to `CC1(C)CC2(OC2c2ccccc2)C(=O)c2ccccc21` (stereo not drawn), the T/C was 89 % of control under setting [7], 89 % of control under setting [8], 87 % of control under setting [19] and 88 % of control under setting [20].
In the case of `COC1C(/C=[N+](\[O-])C2C(C3COC(C)(C)O3)OC3OC(C)(C)OC32)OC2OC(C)(C)OC21` (stereo not drawn), the T/C under setting [8] is 100 % of control, the T/C under setting [19] was 103 % of control and the T/C under setting [21] is 105 % of control.
As for `CC(C)=Cc1cc(-c2cc(C=C(C)C)nc(N)n2)nc(N)n1`, the T/C is 97 % of control (dose: 60.0 mg/kg/injection, schedule: Q01DX005 (ip), vehicle: saline) and 94 % of control (dose: 120.0 mg/kg/injection, schedule: Q01DX005 (ip), vehicle: saline).
For `COC(=O)/C=C/C=C(c1ccccc1)c1ccccc1`, the T/C reads like this: under setting [22], 99 % of control; under setting [23], 104 % of control; under setting [24], 106 % of control; under setting [25], 113 % of control.
In the case of `C[C@]12CC[C@H](O)CC1=CC[C@@H]1[C@@H]2CC[C@]2(C)C(=O)CC[C@@H]12`, the T/C is 94 % of control (dose: 25.0 mg/kg/injection, schedule: Q01DX005 (ip), vehicle: saline with Tween-80); 90 % of control under setting [9]; 91 % of control under setting [10]; 90 % of control under setting [11].
As for `Cc1cnc(C2OCCO2)c2cccc([N+](=O)[O-])c12`, the T/C is 105 % of control under setting [8], 105 % of control under setting [19] and 101 % of control under setting [21].
Consider `NC(=O)C1=C2NC(=O)c3ccccc3C2C2=C1CCCC2` (stereo not drawn), for which the T/C is 90 % of control under setting [15]; 92 % of control (dose: 25.0 mg/kg/injection, schedule: Q01DX005 (ip), vehicle: Klucel (hydroxypropylcellulose) (HPC)); 98 % of control and 105 % of control under setting [16].
`CC1(CNC(=O)C(=O)NCC2(C)CO2)CO1` (stereo not drawn): the T/C is 90 % of control (dose: 6.25 mg/kg/injection, schedule: Q04DX003 (ip), vehicle: saline with Tween-80); 109 % of control (dose: 17.5 mg/kg/injection, schedule: Q04DX003 (ip), vehicle: saline with Tween-80); 150 % of control (dose: 25.0 mg/kg/injection, schedule: Q01DX009 (ip), vehicle: saline with Tween-80); 122 % of control (dose: 25.0 mg/kg/injection, schedule: Q04DX003 (ip), vehicle: saline with Tween-80); 172 % of control under setting [22]; 186 % of control under setting [23]. The T/C was 168 % of control (dose: 100.0 mg/kg/injection, schedule: Q04DX003 (ip), vehicle: saline with Tween-80); 172 % of control (dose: 132.0 mg/kg/injection, schedule: Q04DX003 (ip), vehicle: saline with Tween-80); 163 % of control and 195 % of control (dose: 200.0 mg/kg/injection, schedule: Q04DX003 (ip), vehicle: saline with Tween-80); 195 % of control (dose: 300.0 mg/kg/injection, schedule: Q04DX003 (ip), vehicle: saline with Tween-80); 109 % of control (dose: 400.0 mg/kg/injection, schedule: Q04DX003 (ip), vehicle: saline with Tween-80).
For `O=C(Nc1cccc2c1C(=O)c1cccc(Nc3cccc4c3C(=O)c3cccc(NC(=O)c5ccccc5)c3C4=O)c1C2=O)c1ccccc1`, the T/C under setting [9] was 101 % of control and 94 % of control; the T/C under setting [10] is 88 % of control and 92 % of control; the T/C under setting [11] was 93 % of control.
Regarding `CC1(C)OC2OC(/C=N\NC(=O)c3cc4cc(OCc5ccccc5)ccc4[nH]3)C3OC(C)(C)OC3C2O1` (stereo not drawn), the T/C by setting is: under setting [16], 102 % of control; under setting [17], 104 % of control; under setting [18], 102 % of control.
`Cc1c(-c2ccccc2)ccnc1/C=N/NC(=S)NCCc1ccccc1`: the T/C under setting [23] was 101 % of control and 95 % of control.
Consider `NC=O`, for which the T/C runs as follows: under setting [23], 109 % of control; under setting [12], 100 % of control; under setting [24], 118 % of control; under setting [13], 100 % of control; under setting [25], 118 % of control; under setting [14], 118 % of control.
`N#CCCSC(=S)N1CCCCC1`: the T/C reads like this: under setting [7], 104 % of control; under setting [8], 104 % of control and 87 % of control; under setting [19], 98 % of control and 101 % of control; under setting [21], 90 % of control and 93 % of control; under setting [20], 101 % of control.
On to `COC(=O)c1nnn(-c2cccc(Cl)c2)c1N`, for which the T/C runs as follows: under setting [4], 95 % of control; under setting [5], 95 % of control.
Regarding `O=C(NC(c1ccccc1)c1ccccc1)OCc1c2ccccc2cc2ccccc12`, the T/C by setting is: under setting [8], 88 % of control; under setting [19], 100 % of control; under setting [21], 100 % of control.
